Molecular target: T1, recombinant human 5-HT5A receptor (Homo sapiens, UniProt P47898)
T1 construct: expressed in transfected cells; host or cells: HEK-EBNA (Human Embryonic Kidney-EBNA) cells, transient cDNA expression; membranes
Experiment: [3H]LSD radioligand binding assay
Settings: [3H]LSD (approximately 1 nM); membranes from HEK-EBNA cells transiently expressing 5-HT5A receptors; Ki calculated from IC50 using the Cheng-Prussoff equation
Protocol: A [^3H]LSD radioligand binding assay was used to determine the affinity of the compounds for the recombinant human 5-HT5A receptor, in membranes from transiently (cDNA) expressed 5-HT5A receptors in Human Embryonic Kidney-EBNA (HEK-EBNA) cells. Assay buffer consisted of Tris (50 mM) buffer containing 1 mM EGTA, 10 mM MgCl2 (pH 7.4) and 10 μM pargyline. The binding assay was carried out in 96-well-plates in the presence of [^3H]LSD (approximately 1 nM), approximately 2 μg/well of membrane protein, and 0.5 mg of Ysi-poly-1-lysine SPA beads in a final volume of 200 μl of buffer. Non-specific binding was defined using methiothepin 2 μM. Compounds were tested at 10 concentrations. All assays were conducted in duplicate and repeated at least two times. Assay plates were incubated for 120 min at room temperature before centrifugation. Bound ligand was determined using a Packard Topcount scintillation counter. IC50 values were calculated using a non-linear curve fitting program and Ki values calculated using the Cheng-Prussoff equation.

T1 sequence (P47898 whole entry): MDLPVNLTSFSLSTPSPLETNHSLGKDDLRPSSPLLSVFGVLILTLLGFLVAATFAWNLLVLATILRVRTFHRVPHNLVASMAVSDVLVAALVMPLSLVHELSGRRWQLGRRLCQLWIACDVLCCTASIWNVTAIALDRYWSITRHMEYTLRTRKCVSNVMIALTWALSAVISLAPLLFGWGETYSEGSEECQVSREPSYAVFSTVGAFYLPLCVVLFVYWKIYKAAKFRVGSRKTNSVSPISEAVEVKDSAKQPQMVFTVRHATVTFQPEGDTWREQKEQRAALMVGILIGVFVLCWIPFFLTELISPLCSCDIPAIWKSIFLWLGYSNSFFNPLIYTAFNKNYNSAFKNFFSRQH

Structure (SMILES) | Ki
COc1ccccc1CNc1ccc2cc(NS(=O)(=O)NC3CC3)ccc2n1 [Example 20, N-cyclopropyl-N′-{2-[(2-methoxybenzyl)amino]quinolin-6-yl}sulfamide] | 26.8 nM
COc1ccccc1CNc1ccc2cc(NC(=O)NC3CCN(C(=O)CC(F)(F)F)CC3)ccc2n1 [Example 26] | 36.2 nM
COc1ccccc1CNc1ccc2cc(NC(=O)NC3CCN(C(=O)CF)CC3)ccc2n1 [Example 27, 1-[1-(2-Fluoro-acetyl)-piperidin-4-yl]-3-[2-(2-methoxy-benzylamino)-quinolin-6-yl]-urea] | 15.7 nM
COCCN1CCC(NC(=O)Nc2ccc3nc(NCc4ccccc4OC)ccc3c2)CC1 [Example 23, 1-[2-(2-Methoxy-benzylamino)-quinolin-6-yl]-3-[1-(2-methoxy-ethyl)-piperidin-4-yl]-urea] | 6.4 nM
Cc1ccc(CNc2ccc3cc(NC(=O)NC4CCN(C)CC4)ccc3n2)o1 [Example 29, 1-{2-[(5-Methyl-furan-2-ylmethyl)-amino]-quinolin-6-yl}-3-(1-methyl-piperidin-4-yl)-urea] | 12.5 nM
COc1ccccc1CNc1ccc2cc(NS(=O)(=O)N(C)C)ccc2n1 [Example 10, N′-{2-[(2-methoxybenzyl)amino]quinolin-6-yl}-N,N-dimethylsulfamide] | 17.1 nM
COc1ccccc1CNc1ccc2cc(NC(=O)NC3CCN(C4CC4)CC3)ccc2n1 [Example 28, 1-(1-Cyclopropyl-piperidin-4-yl)-3-[2-(2-methoxy-benzylamino)-quinolin-6-yl]-urea] | 6.8 nM
COCC(=O)N1CCC(NC(=O)Nc2ccc3nc(NCc4ccccc4OC)ccc3c2)CC1 [Example 31, 1-[1-(2-Methoxy-acetyl)-piperidin-4-yl]-3-[2-(2-methoxy-benzylamino)-quinolin-6-yl]-urea] | 20.4 nM
COc1ccccc1CNc1ccc2cc(NS(=O)(=O)N3C[C@@H]4C[C@H]3CO4)ccc2n1 [Example 19, (1S,4S)-2-Oxa-5-aza-bicyclo[2.2.1]heptane-5-sulfonic acid [2-(2-methoxy-benzylamino)-quinolin-6-yl]-amide] | 8 nM
COc1ccccc1CNc1ccc2cc(NC(=O)C3CC3)ccc2n1 [Example 32, Cyclopropanecarboxylic acid [2-(2-methoxy-benzylamino)-quinolin-6-yl]-amide] | 6.5 nM
COc1ccccc1CNc1ccc2cc(NC(=O)NC3CCN(C(C)C)CC3)ccc2n1 [Example 25, 1-(1-Isopropyl-piperidin-4-yl)-3-[2-(2-methoxy-benzylamino)-quinolin-6-yl]-urea] | 6.7 nM

Other lines, results leading:

Ki | Structure (SMILES)
27.4 nM | Cc1ccc(CNc2ccc3cc(NC(=O)NC(C)C)ccc3n2)o1 [Example 21, 1-Isopropyl-3-{2-[(5-methyl-furan-2-ylmethyl)-amino]-quinolin-6-yl}-urea]
3.3 nM | COc1ccccc1CNc1ccc2cc(NC(=O)NC(C)C)ccc2n1 [Example 14, 1-Isopropyl-3-[2-(2-methoxy-benzylamino)-quinolin-6-yl]-urea]
33 nM | COc1ccccc1CNc1ccc2cc(NC(=O)CN3CCN(C)CC3)ccc2n1 [Example 33, N-[2-(2-Methoxy-benzylamino)-quinolin-6-yl]-2-(4-methyl-piperazin-1-yl)-acetamide]
2.7 nM | COc1ccccc1CNc1ccc2cc(NC(=O)NC3CCN(C)CC3)ccc2n1 [Example 17, 1-[2-(2-Methoxy-benzylamino)-quinolin-6-yl]-3-(1-methyl-piperidin-4-yl)-urea]
49.5 nM | COc1ccc(CNc2ccc3cc(NC(=O)NC(C)C)ccc3n2)cc1 [Example 18, 1-Isopropyl-3-[2-(4-methoxy-benzylamino)-quinolin-6-yl]-urea]
5.9 nM | COc1ccccc1CNc1ccc2cc(NC(=O)NC3CCN(CCSC)CC3)ccc2n1 [Example 30, 1-[2-(2-Methoxy-benzylamino)-quinolin-6-yl]-3-[1-(2-methylsulfanyl-ethyl)-piperidin-4-yl]-urea]
8.4 nM | COc1ccccc1CNc1ccc2cc(NC(=O)NC3CCN(CCF)CC3)ccc2n1 [Example 24, 1-[1-(2-Fluoro-ethyl)-piperidin-4-yl]-3-[2-(2-methoxy-benzylamino)-quinolin-6-yl]-urea]

Source: US8350028B2, “2-aminoquinolines” (Hofmann-La Roche Inc., priority 2008, dated 2013)
